Results on two sequences are retold here after patent publication US11529397B2, “Method of treating mucopolysaccharidosis type IVA” (Saint Louis University, priority 2018, dated 2022).

Assay [1] relates to splenocytes. Kind of assay: Secreted cytokines of splenocytes in Morquio A mouse models and WT mice treated by ERT (Examples 10-13). The assay is classed as cell-based. As to conditions: for IL-4 secretion / IL-5 secretion: MTol mice. The protocol: (§1) Morquio A mouse models: a). […] 14(22): p. 3321-35).c). Missense mutation mice (Galnstm (C76S) SLU C2) (Tomatsu et al. (2007) Mol Genet Metab., 91(3): p. 251-8), and wild-type C57BL6 mice were treated by ERT. […] A control group received PBS.
(§2) The suspension was centrifuged at 1,000 rpm during 10 minutes.
Cytokines were determined in the cell culture supernatants. […] Cells were centrifuged at 1000 rpm during 10 min. Secreted cytokines (IL-4, IL-5, IL-13, and IFN-γ) in the collected supernatants were detected by a bead immunoassay kit which allow the measurement of multiple proteins simultaneously (LUMINEX xMAP Technology, using a Millipore Milliplex™ kit) according to manufacturer's instructions.

The subject of assay [2] is splenocytes. Kind of assay: Cytokine production by splenocytes after in vitro stimulation (Example 3). The assay is classed as cell-based, mouse. As to conditions: splenocytes of MKC mice treated by ERT with GALNS; culture supernatant. Here is the method: (§3) Mice (MKC) genetically engineered not to express GALNS were used in these examples. […] 200 μl of the emulsion were administered as a subcutaneous injection. […] Control mice (n=2) were immunized with PBS emulsified in CFA and IFA respectively (Chung et al. (2005) J. Leukoc Biol. 77(6):906-13)). […] A control group (n=5) received PBS (Tomatsu et al. (2008) Hum Mol Genet. 15; 17(6):815-24). […]
The production of cytokines after peptide stimulation was evaluated as intracellular staining (by flow cytometry) and secreted cytokines (by LUMINEX). […] The cells were treated with 1 μl of a protein transport inhibitor BD GolgiPlug™ during 5 h at 37° C., saturated humidity and 5% CO2. The suspension of cells was centrifuged at 1000 rpm during 10 minutes. The supernatants were collected by further analysis with LUMINEX. The Fc receptors were blocked with 1 μl of α-mouse CD16/32 (e-Bioscience) during 15 min at 4° C. After washing, the cells were stained with PE-Cy7-labeled anti-mouse CD4 and Alexa700-labeled anti-mouse CD8 antibodies during 30 min at 4° C. After two washes, cells were permeabilized with a BD fixation/permeabilization solution during 20 min at 4° C. Cells were washed two times and stained with a cocktail of antibodies for intracellular staining (PE-labeled anti-mouse IL-4, APC-labeled anti-mouse IL-5 and FITC-labeled anti-mouse IFN-γ). After two washes, cells were analyzed by flow cytometry. Secreted cytokines (IL-4, IL-5, IL-13, IL-17 and IFN-γ) in the collected supernatants were detected by using a bead immunoassay kit which allows the measurement of multiple proteins simultaneously (LUMINEX technology, using a Millipore Milliplex™ kit).

Assay [3] deals with splenocytes. Kind of assay: Secreted cytokine profile of splenocytes, retest in MKC mice (Example 7). In kind it is cell-based, mouse. As to conditions: for IL-5 secretion, ERT treated vs PBS controls, p or significance / IL-13 secretion, ERT treated vs PBS controls, p or significance / profile of secreted cytokines, ERT treated vs PBS treated mice: MKC mice; for profile of secreted cytokines, ERT treated vs PBS treated mice: 16 i.v. infusions. Here is the method: The predicted peptides from Example 1 were reevaluated in MKC mice to reaffirm the selection of peptides 4, 8, and 10. […] A control group received PBS. […] The suspension was centrifuged at 1,000 rpm during 10 minutes. […] The specificity of cellular response against the peptides or the complete enzyme in the in vitro stimulation was determined by splenocyte proliferation or cytokine secretion in ERT treated mice or PBS injected control mice.
Cytokines were determined in the cell culture supernatants. […] Cells were centrifuged at 1,000 rpm during 10 min. Secreted cytokines (IL-4, IL-5, IL-13, and IFN-γ) in the collected supernatants were detected by a bead immunoassay kit which allow the measurement of multiple proteins simultaneously (LUMINEX xMAP Technology, using a Millipore Milliplex™ kit) according to manufacturer's instructions (FIG. 5).

Assay [4] relates to splenocytes. Kind of assay: Screening of peptides by splenocytes proliferation, retest in MKC mice (Examples 5-6). In kind it is cell-based, mouse. The following applies: MKC mice, 16, 22 and 24 infusions; with higher number of infusions. The protocol:
of body weight through the tail vein. A control group received PBS. […] The suspension was centrifuged at 1,000 rpm during 10 minutes. […] The specificity of cellular response against the peptides or the complete enzyme in the in vitro stimulation was determined by splenocyte proliferation or cytokine secretion in ERT treated mice or PBS injected control mice. […] 3H-Thymidine incorporation was measured by β-Scintillation counter (Trilux Microbeta Counter). Proliferation data are expressed as counts per minute (cpm) values (FIG. 5). (Mirano-Bascos et al. (2010) J Virol. 84(7): p. 3303-11).

The test system of assay [5] is splenocytes. The assay can be described thus: Splenocyte proliferation after in vitro stimulation with peptides or GALNS (Examples 2, 4). In kind it is cell-based, mouse. As to conditions: for proliferation of splenocytes relative to age of the animal and length of treatment: MKC mice, weeks of infusion; for splenocyte proliferation response: splenocytes of MKC mice treated by ERT with GALNS, in vitro peptide stimulation. Here is the method:
as §3
Ten days after the last immunization or the last infusion, the mice were euthanized and the spleen was aseptically removed. […] The suspension was centrifuged at 1000 rpm […]. The red blood cells were lysed using a hypotonic lysis buffer (Sigma® R7757). […] Cells were pulsed with 1 JpCi of [3H]thymidine for the last 18 h of incubation. [3H]thymidine incorporation was measured by […] (Trilux Microbeta Counter). The Stimulation Index (SI) was calculated as the mean value of the three wells for each condition divided by the mean value of the unstimulated cells (Mirano-Bascos (2010) J Virol. 84(7):3303-11).

Assay [6] has as its system splenocytes. Kind of assay: Splenocytes proliferation in Morquio A mouse models and WT mice treated by ERT (Example 9). In kind it is cell-based. Here is the method:
as §1, §2
Thymidine incorporation was measured by β-Scintillation counter (Trilux Microbeta Counter) Mirano-Bascos, et al. (2010) J Virol. 84(7): p. 3303-11).

With “PNCHFGPYDNKARPNIPVYR (listed as Homo sapiens) [Peptide C4]”, in assay [1], the IL-4 secretion entry is given as “did not present secretion of IL-4” and the IL-5 secretion entry is listed as “did not present secretion of IL-5”. Besides, the “IFN-γ secretion compared with the other stimuli” value in assay [1] (mice treated by ERT) is given as “strongest response”. Besides, in assay [2], the “secretion of cytokines IL-5 and IFN-γ” value is listed as “strong response”. For the same sequence, in assay [3], the “IL-5 secretion, ERT treated vs PBS controls, p or significance” value is recorded as 0.028; the “IL-13 secretion, ERT treated vs PBS controls, p or significance” value is recorded as “not statistically significant”; the “profile of secreted cytokines, ERT treated vs PBS treated mice” value is reported as “statistically significant difference”. Also, in assay [3] (MKC mice treated by ERT), the “levels of secreted IFN-γ among the peptides and GALNS” value was “highest levels”. The “relationship between number of weekly i.v. infusions and cpm values of splenocytes proliferation” value in assay [4] is recorded as “lower levels of proliferation”. Moreover, in assay [5], the “proliferation of splenocytes relative to age of the animal and length of treatment” value was “highest response at 16 weeks”; the splenocyte proliferation response result was “strong response”. In assay [6] (C2 mice), the “splenocytes proliferation, ERT treated vs PBS controls” value is recorded as “statistically significant difference”. The “splenocytes proliferation, ERT treated vs PBS controls” value in assay [6] (MKC mice) is listed as “statistically significant”. In assay [6] (WT mice), the “splenocytes proliferation, ERT treated vs PBS controls” value was “statistically significant difference”.

Turning to “FFLYWAVDATHAPVYASKPF (listed as Homo sapiens) [Peptide E8]”, in assay [1], the “IFN-γ secretion, MKC vs MTol mice treated by ERT, p or significance” value is listed as “not statistically significant”; the IL-4 secretion entry was “did not present secretion of IL-4”; the IL-5 secretion result is reported as “did not present secretion of IL-5”. In assay [1] (all mice (MKC, C2, WT, MTol)), the “IFN-γ secretion, ERT treated vs PBS controls of the same strain” value was “statistically significant levels”. In assay [1] (any of the mice models), the “IL-5 secretion, ERT treated vs PBS controls” value is reported as “did not induce IL-5 secretion”. In addition, in assay [2], the “secretion of cytokines IL-5 and IFN-γ” value is reported as “strong response”. In assay [3], the “IL-5 secretion, ERT treated vs PBS controls, p or significance” value is “did not induce a significant IL-5 response”; the “IL-13 secretion, ERT treated vs PBS controls, p or significance” value is given as “not statistically significant”; the “profile of secreted cytokines, ERT treated vs PBS treated mice” value is listed as “statistically significant difference”. Besides, the “relationship between number of weekly i.v. infusions and cpm values of splenocytes proliferation” value in assay [4] is “lower levels of proliferation”. In assay [5], the “proliferation of splenocytes relative to age of the animal and length of treatment” value was “highest response at 16 weeks”; the splenocyte proliferation response entry is reported as “strong response”. The “splenocytes proliferation, ERT treated vs PBS controls” value in assay [6] (C2 mice) is listed as “statistically significant difference”. Further, the “splenocytes proliferation, ERT treated vs PBS controls” value in assay [6] (MKC mice) is “statistically significant”. Besides, the “splenocytes proliferation, ERT treated vs PBS controls” value in assay [6] (WT mice) is recorded as “statistically significant difference”.
